In ChEMBL document CHEMBL1127162, “1,4-Diacylpiperazine-2-(S)-[(N-aminoalkyl)carboxamides] as novel, potent substance P receptor antagonists” (Bioorg Med Chem Lett, 1993):

Target: Substance-P receptor (Homo sapiens, UniProt P25103)
Experiment: Inhibition of [125I]-Substance P binding to human NK1 receptors in CHO cells
Type: cell-based

Sequence of Substance-P receptor (P25103 whole entry): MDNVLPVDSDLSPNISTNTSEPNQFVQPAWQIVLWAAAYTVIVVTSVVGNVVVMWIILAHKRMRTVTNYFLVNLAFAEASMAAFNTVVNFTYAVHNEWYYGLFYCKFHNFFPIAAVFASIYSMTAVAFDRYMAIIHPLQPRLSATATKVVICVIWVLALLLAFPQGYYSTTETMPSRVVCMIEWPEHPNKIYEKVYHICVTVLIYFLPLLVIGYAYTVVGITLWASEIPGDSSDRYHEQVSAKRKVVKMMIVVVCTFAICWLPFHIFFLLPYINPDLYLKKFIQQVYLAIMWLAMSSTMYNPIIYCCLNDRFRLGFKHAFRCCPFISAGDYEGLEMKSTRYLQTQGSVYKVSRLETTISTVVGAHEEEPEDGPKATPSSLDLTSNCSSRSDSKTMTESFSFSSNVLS

CCCCCN(CCCCC)C(=O)N1CCN(C(=O)N(c2ccccc2)c2ccccc2)[C@H](CO)C1
IC50: 0.28 µM

CCCCCN(CCCCC)C(=O)N1CCN(C(=O)N(c2ccccc2)c2ccccc2)[C@H](C(=O)NCCN)C1
IC50: 0.057 µM

CCCCCN(CCCCC)C(=O)N1CCN(C(=O)N(c2ccccc2)c2ccccc2)[C@H](C(=O)N(C)CCN(C)Cc2ccccc2)C1
IC50: 0.29 µM

CCCCCN(CCCCC)C(=O)N1CCN(C(=O)N(c2ccccc2)c2ccccc2)[C@H](C(=O)NCCNC(C)=O)C1
IC50: 0.14 µM

CCCCCN(CCCCC)C(=O)N1CCN(C(=O)N(c2ccccc2)c2ccccc2)[C@H](C(=O)N(C)CCN(C)Cc2cc(C(F)(F)F)cc(C(F)(F)F)c2)C1
IC50: 1.08 µM

CCCCCN(CCCCC)C(=O)N1CCN(C(=O)N(c2ccccc2)c2ccccc2)[C@H](C(=O)N(C)CCN(C)C)C1
IC50: 0.93 µM

CCCCCN(CCCCC)C(=O)N1CCN(C(=O)N(c2ccccc2)c2ccccc2)[C@H](C(=O)N(C)CCN(C)Cc2ccccc2OC)C1
IC50: 0.017 µM

CCCCCN(CCCCC)C(=O)N1CCN(C(=O)N(c2ccccc2)c2ccccc2)[C@H](C(=O)NCCN(C(C)C)C(C)C)C1
IC50: 0.217 µM

CCCCCN(CCCCC)C(=O)N1CCN(C(=O)N(c2ccccc2)c2ccccc2)CC1
IC50: 0.5 µM

CCCCCN(CCCCC)C(=O)N1CCN(C(=O)N(c2ccccc2)c2ccccc2)[C@@H](C(=O)O)C1
IC50: 3 µM

CCCCCN(CCCCC)C(=O)N1CCN(C(=O)N(c2ccccc2)c2ccccc2)[C@H](C(=O)O)C1
IC50: 0.13 µM

CCCCCN(CCCCC)C(=O)N1CCN(C(=O)N(c2ccccc2)c2ccccc2)[C@H](C(=O)NCC(=O)O)C1
IC50: 0.597 µM

CCCCCN(CCCCC)C(=O)N1CCN(C(=O)N(c2ccccc2)c2ccccc2)[C@H](C(=O)NCCCN(CC)CC)C1
IC50: 0.041 µM

CCCCCN(CCCCC)C(=O)N1CCN(C(=O)N(c2ccccc2)c2ccccc2)[C@H](C(=O)NCCN(C)C)C1
IC50: 0.055 µM

CCCCCN(CCCCC)C(=O)N1CCN(C(=O)N(c2ccccc2)c2ccccc2)[C@H](C(=O)NCCNCc2ccccc2OC)C1
IC50: 0.009 µM

CCCCCN(CCCCC)C(=O)N1CCN(C(=O)N(c2ccccc2)c2ccccc2)[C@H](C(=O)NCCN(CC)CC)C1
IC50: 0.011 µM

CCCCCN(CCCCC)C(=O)N1CCN(C(=O)N(c2ccccc2)c2ccccc2)[C@H](C(=O)N(C)CCN(C)Cc2cc(C)cc(C)c2)C1
IC50: 0.2 µM

CCCCCN(CCCCC)C(=O)N1CCN(C(=O)N(c2ccccc2)c2ccccc2)[C@H](C(=O)NCCOC)C1
IC50: 0.267 µM

CCCCCN(CCCCC)C(=O)N1CCN(C(=O)N(c2ccccc2)c2ccccc2)[C@H](C(=O)NCCN(C)Cc2ccccc2OC)C1
IC50: 0.009 µM
